The source of these data is PubChem BioAssay AID1996.

≈ marks a conversion by molar mass, not a printed value.

For this data set the following is noted: buffer; pH 7.4; 200.0 µM.
Take `O=[N+]([O-])c1cccc(Oc2cnccn2)c1`: the solubility (kinetic) (as a rule, the concentration staying in solution when a stock, usually in DMSO, is diluted into the medium) is 31.8 µg/mL (≈ 146 µM).

The compound `O=C(/C=C/c1ccccn1)c1cc(Cl)cc(Cl)c1O` displayed a kinetic solubility of 5.9 µg/mL (≈ 20.1 µM).

Compound `Cc1ccc(C(=O)N2CCN(C(=O)c3ccc(C)cc3)C2)cc1` registered a kinetic solubility of over 46.3 µg/mL.

For the compound `Cc1ccc2cc(S(=O)(=O)NCCCN3CCOCC3)ccc2c1`, the kinetic solubility is over 52.3 µg/mL.

In turn, `Cc1ccc(NC(=O)COC(=O)c2nn(C)cc2Cl)cc1` returned a solubility (kinetic) of over 46.2 µg/mL.

As to `CC(=O)c1cccc(NC(=O)c2ccc3ccccc3c2)c1`, the kinetic solubility amounted to 1.9 µg/mL (≈ 6.57 µM).

Turning to `CC(C)C(=O)Nc1ccc2c(c1)Cc1cc(NC(=O)C(C)C)ccc1-2`, the solubility (kinetic) was under 0.4 µg/mL.

`Cl.Fc1ccc(-c2csc(Nc3ccccn3)n2)c(F)c1` returned a kinetic solubility of under 0.2 µg/mL.

In turn, `N/C(=N\OC(=O)C1CCCCC1)c1cccc(Br)c1` returned a solubility (kinetic) of 3.5 µg/mL (≈ 10.8 µM).

With `CC(C)N1CCN(CCCc2ccccc2)CC1CCO` (stereo not given), the solubility (kinetic) is over 43.6 µg/mL.

`CCn1c(=O)c(C(=O)NC(C)c2ccccc2)c(O)c2ccccc21` (stereo not given) registered a solubility (kinetic) of under 0.4 µg/mL.

Compound `Cc1noc(C)c1COc1ccc(C(=O)Nc2ccccc2)cc1` had a kinetic solubility of 0.8 µg/mL (≈ 2.48 µM).

With `Cc1oc(-c2ccc(Cl)cc2)cc1C(=O)NC1CCN(Cc2ccccc2)CC1`, the kinetic solubility stood at 1 µg/mL (≈ 2.45 µM).

`NC(=O)C1CCN(C(=O)/C=C/c2cccc(Br)c2)CC1` registered a solubility (kinetic) of 46.9 µg/mL (≈ 139 µM).

As to `COc1ccc(C(C)NC(=O)Cc2cccs2)cc1` (stereo not given), the solubility (kinetic) came out at 37.1 µg/mL (≈ 135 µM). This solubility kinetic and that of the compound before are within 1.5-fold of each other.

The compound `CCN(Cc1ccccc1)C(=O)CS(=O)(=O)c1ccccc1` displayed a solubility (kinetic) of over 47.6 µg/mL.

Compound `COc1ccc(NC(C)=O)cc1NC(=O)c1ccc(C#N)cc1` came in with a kinetic solubility of over 46.4 µg/mL.

In turn, `COC(=O)c1nccnc1C(=O)Nc1ccccc1N1CCOCC1` had a kinetic solubility of over 51.4 µg/mL.

For `CCCn1c(=N)n(CC(O)c2ccc(C)cc2)c2ccccc21.Cl` (stereo not given), the kinetic solubility was over 51.9 µg/mL.

`CCS(=O)CC(=O)Nc1c(-c2ccccc2)oc2ccccc2c1=O` (stereo not given) had a solubility (kinetic) of 44.8 µg/mL (≈ 126 µM).

As for `N#C/C(=C\c1ccc(O)cc1)C(=O)NCc1cccc(Cl)c1`, the solubility (kinetic) was under 0.3 µg/mL.

`CC1CCN(C(=O)c2ccc(N3C(=O)c4ccccc4C3=O)cc2)CC1` showed a solubility (kinetic) of 33.5 µg/mL (≈ 96.2 µM).

In turn, `OCCN1CNC(=S)NC1` came in with a kinetic solubility of 22.8 µg/mL (≈ 141 µM).

Consider `COC(=O)c1ccc(CNC(=O)COC(=O)/C=C/c2ccc(O)c(OC)c2)cc1`, for which the solubility (kinetic) is 13.4 µg/mL (≈ 33.6 µM).

On to `COc1ccc(CNC(=O)COC(=O)c2cc3ccccc3cc2O)cc1OC`, for which the solubility (kinetic) stood at 25.9 µg/mL (≈ 65.5 µM).

`CC(C)n1c(SCC(=O)NC2CCCCC2)nnc1-c1ccco1`: the kinetic solubility was over 52.3 µg/mL.

Take `COc1ccc(C2SCC(=O)N2c2ccccc2)cc1` (stereo not given): the kinetic solubility was found to be 38.6 µg/mL (≈ 135 µM).

In the case of `CCN(CC(=O)Nc1c(F)cccc1F)C(=O)c1ccc(=O)[nH]c1`, the solubility (kinetic) is over 50.3 µg/mL.

The compound `CC1(C)CC(=O)C(C(O)c2cccc([N+](=O)[O-])c2)C(C)(C)N1` (stereo not given) registered a solubility (kinetic) of 44.9 µg/mL (≈ 147 µM).

`c1ccc(CCNCCOc2ccccc2)cc1`: the solubility (kinetic) came out at 22.8 µg/mL (≈ 94.5 µM).

`C/C(=N\NC(=O)c1cccc([N+](=O)[O-])c1)c1cccnc1` came in with a solubility (kinetic) of over 42.6 µg/mL.

On to `COc1ccc(C(=O)OCC(=O)NCCc2ccc(F)cc2)cc1S(=O)(=O)N1CCOCC1`, for which the kinetic solubility was over 72.1 µg/mL.

Turning to `COc1ccc(CNCC(O)(c2ccccc2)c2ccccc2)cc1`, the kinetic solubility was over 50 µg/mL.

As to `CC(C)C(NS(=O)(=O)c1ccccc1)C(=O)N1CCCCCC1` (stereo not given), the kinetic solubility is over 50.8 µg/mL.

In the case of `COC(=O)c1ccc(/C=N/OCC(=O)NCc2ccc(F)cc2)cc1`, the solubility (kinetic) was 10.3 µg/mL (≈ 29.9 µM).

For `COC(=O)c1oc(-c2ccc(Cl)cc2)nc1C`, the kinetic solubility was determined as 2 µg/mL (≈ 7.95 µM). This solubility kinetic lies about 5.2-fold lower than the previous one.

`COCC(=O)Nc1ccc2c(c1)OCC(=O)N2Cc1ccccc1F` showed a solubility (kinetic) of 46.4 µg/mL (≈ 135 µM). Compared with the last compound, the solubility kinetic is about 23-fold higher.

Regarding `CCCc1cc(=O)[nH]c(SCc2ccc(F)cc2)n1`, the solubility (kinetic) stood at 3.2 µg/mL (≈ 11.5 µM).

For `CC(=O)N1CCN(C(=O)c2cc(C)nc3ccccc23)CC1`, the solubility (kinetic) was found to be 33.7 µg/mL (≈ 113 µM).

`CCN1C(=O)CSC1=Nc1cccc(C(=O)O)c1`: the kinetic solubility was over 39.6 µg/mL.

Consider `CC(=O)Nc1ccc(S(=O)(=O)NCCC(=O)OCC(=O)NCc2ccccc2)cc1`, for which the kinetic solubility was over 65 µg/mL.

`CCCS(=O)(=O)Nc1cccc(-c2cn3c(n2)SCC3)c1` gave a kinetic solubility of over 48.5 µg/mL.

`O=C(OCc1nc2ccccc2s1)c1ccco1` returned a kinetic solubility of 35.4 µg/mL (≈ 137 µM).

Compound `O=C(/C=C/c1ccco1)NCCCN1CCOCC1` showed a kinetic solubility of over 39.6 µg/mL.

`Cc1ccc(NC(=O)O/N=C/c2cccc([N+](=O)[O-])c2)cc1` registered a solubility (kinetic) of 9.3 µg/mL (≈ 31.1 µM).

`O=S(=O)(/C=C/c1ccccc1)N1CCc2ccccc2C1` yielded a solubility (kinetic) of under 0.6 µg/mL.

Regarding `CS(=O)(=O)c1ccc2nc(NC(=O)c3ccccc3)sc2c1`, the solubility (kinetic) was 1.5 µg/mL (≈ 4.51 µM).

`O=C(C1CC1)N1CCN(c2ccc([N+](=O)[O-])cc2-n2cccc2)CC1` returned a solubility (kinetic) of 6.3 µg/mL (≈ 18.5 µM).

`COc1cc(N2Cc3ccccc3C2)ccc1C=O` showed a kinetic solubility of 1.8 µg/mL (≈ 7.11 µM).

Regarding `CCOCCN(C(=O)c1ccccc1Cl)c1ccccc1`, the kinetic solubility was found to be 41.1 µg/mL (≈ 135 µM).

In the case of `CC1CCCN(C(=O)c2cc(-c3cccs3)nc3ccccc23)C1` (stereo not given), the solubility (kinetic) was 17.2 µg/mL (≈ 51.1 µM).

The compound `CCCOc1ccc(C(=O)OCCN2CCCCC2)c(O)c1.Cl` yielded a kinetic solubility of 49.8 µg/mL. This solubility kinetic is about 2.9-fold higher than that of the compound before.

`O=C(O)c1ccc2c(c1)CCCN2` showed a kinetic solubility of over 26.6 µg/mL.

In the case of `CCC(=O)NC(c1ccccc1)c1c(O)ccc2ccccc12` (stereo not given), the solubility (kinetic) stood at 0.9 µg/mL (≈ 2.95 µM).

Compound `O=C(CSC(=S)N1CCOCC1)Nc1nccs1` yielded a solubility (kinetic) of 7.9 µg/mL (≈ 26 µM).

In the case of `O=C(CSc1ccc(Cl)cc1)NCc1ccncc1`, the kinetic solubility was over 43.9 µg/mL.

Compound `O=C(CN1CCc2cc3c(cc2C1)OCCCO3)Nc1ccccc1` showed a solubility (kinetic) of 4.4 µg/mL (≈ 13 µM).

The compound `O=C(NCc1csc2ccc(Cl)cc12)Nc1ccccc1` registered a kinetic solubility of under 0.3 µg/mL.

As to `O=C(CN1C(=O)NC(CCc2ccccc2)C1=O)N1CCCCCC1` (stereo not given), the kinetic solubility was over 51.5 µg/mL.

As for `Cc1nc2cc(NC(=O)c3ccc(Cl)cc3)ccc2n1C`, the kinetic solubility came out at 1 µg/mL (≈ 3.34 µM).

With `O=C(COC(=O)c1ccc([N+](=O)[O-])s1)c1ccc[nH]1`, the solubility (kinetic) was determined as 22.5 µg/mL (≈ 80.3 µM).

With `CN(C)Cc1c(O)ccc2ccccc12`, the solubility (kinetic) came to 29.8 µg/mL (≈ 148 µM).

The compound `Cc1ccc2c(NC(=S)NC(=O)c3ccccc3)cccc2n1` gave a solubility (kinetic) of 11.3 µg/mL (≈ 35.2 µM).

`O=C(NCc1ccccn1)Nc1ccccc1C(F)(F)F`: the solubility (kinetic) was over 44.3 µg/mL.

`CC(=O)c1cccc(NCC(=O)c2ccc(C)c([N+](=O)[O-])c2)c1`: the solubility (kinetic) was determined as 13.7 µg/mL (≈ 43.9 µM).

For the compound `Cc1ccc(C(=O)Nc2ccc(C)c(S(=O)(=O)N3CCOCC3)c2)c(C)c1`, the solubility (kinetic) stood at 37.9 µg/mL (≈ 97.6 µM).

As to `CCc1ccccc1NCc1cc(=O)oc2cc(C)ccc12`, the solubility (kinetic) worked out at 0.7 µg/mL (≈ 2.39 µM).

Compound `COc1ccc(CC(CC(=O)O)C(=O)NCc2ccccc2)cc1` (stereo not given) displayed a solubility (kinetic) of 48.6 µg/mL (≈ 148 µM). Against the preceding compound, the solubility kinetic is about 69-fold higher.

Compound `CC(=O)c1cc(C(C)=O)c(C)nc1C` had a kinetic solubility of over 28.7 µg/mL.

In turn, `Cc1ccnc(NC(=O)CCNC(=O)c2ccccc2Cl)c1` showed a solubility (kinetic) of over 47.7 µg/mL.

Compound `CN(C)CCN1C(=O)NC(C)(c2ccc([N+](=O)[O-])cc2)C1=O` (stereo not given) displayed a kinetic solubility of over 45.9 µg/mL.

`COc1cc(C=O)ccc1OC(=O)c1cccnc1` came in with a kinetic solubility of 33.7 µg/mL (≈ 131 µM).

Consider `COc1ccc(C(=O)NCc2cc3ccccc3n2C)cc1`, for which the solubility (kinetic) came out at 3.7 µg/mL (≈ 12.6 µM). Compared with the last compound, the solubility kinetic is about 9.1-fold lower.

Regarding `Cc1cc(N2C(=O)c3ccccc3C2=O)n(C)n1`, the solubility (kinetic) was over 36.2 µg/mL.

For `CC(=O)Nc1nc2ccccc2[nH]1`, the solubility (kinetic) was found to be 15.1 µg/mL (≈ 86.2 µM).
